SMILES strings stand for the structures. Bounds are passed on as bounds.

The target of assay [1] is T1, EGFR (Homo sapiens, UniProt P00533).
T1 construct: made in house; host or cells: baculovirus expression system
In words: EGFR substrate phosphorylation assay (HTRF). In kind it is biochemical. The method, then: (§1) Compounds of the present invention were tested for EGFR and ErbB-2 protein tyrosine kinase inhibitory activity in substrate phosphorylation assays using enzymes purified from a baculovirus expression system. Reagent production was conducted essentially as described in Brignola, P. S., et al, (2002) J. Biol. Chem. 277(2):1576-1585.
(§2) The method measures the ability of the isolated enzyme to catalyse the transfer of the gamma-phosphate from ATP onto the tyrosine residue of a biotinylated synthetic peptide referenced “Peptide C” in Brignola, P. S., et al, (2002) J. Biol. Chem. 277(2):1576-1585. The extent of tyrosine phosphorylation was measured using an anti-phosphotyrosine antibody, and quantified by homogenous time-resolved fluorescence (HTRF).
(§3) Reactions were performed in black 384-well polystyrene flat-bottom plates in a final volume of 20 μL. Assays were performed by adding 10 μL of each of the following solutions, Substrate Mix and Enzyme Mix: The Substrate Mix contained 100 mM 3-[N-morpholino]propanesulfonic acid (MOPS) (pH 7.5), 2 mM MnCl2, 20 μM ATP, 0.01% Tween-20, 0.1 mg/mL (BSA), 0.8 uM peptide substrate, and 1 mM dithiothreitol. The Enzyme Mix contained 100 mM MOPS (pH7.5); 0.01% Tween-20; 0.1 mg/mL BSA, and either 0.8 nM EGFR, 10 nM ErbB2, or 1 nM ErbB4. The Enzyme Mix was added to the compound plates and the plates were incubated at 20° C. for 1 hr. The reactions were then started by adding the Substrate Mix.
(§4) After initiating the reaction with the method described above, the reactions were allowed to proceed for 90 minutes at 20° C. The reactions were then terminated by the addition of 20 μL 100 mM EDTA to each well. 40 μL/well of HTRF detection mix were added to the assay plates. The final concentrations of the detection reagents were: 100 mM HEPES (pH7.5), 0.1 mg/mL BSA, 15 nM streptavidin-labeled allophycocyanin (PerkinElmer), and 1 nM europium-labeled anti-phosphotyrosine antibody (Perkin Elmer). Assay plates were left unsealed and were counted in a Wallac Multilabel Counter 1420 (PerkinElmer).
(§5) Compounds under analysis were dissolved in dimethylsulfoxide (DMSO) to 1.0 mM and serially diluted 1 to 3 with DMSO through twelve dilutions. 1 μL of each concentration was transferred to the corresponding well of an assay plate. This creates a final compound concentration range from 0.00027 to 47.6 μM.
(§6) The data for dose responses were plotted as % Inhibition calculated with the data reduction formula 100*(1-(U1−C2)/(C1−C2)) versus concentration of compound where U1 is the unknown value, C1 is the average control value obtained for 4.76% DMSO, and C2 is the average control value obtained for 0.035 M EDTA. Data were fitted with a curve described by:
(§7) where Vmax is the upper asymptote, Y2 is the Y intercept, and K is the IC50. The results for each compound were recorded as pIC50s, calculated as follows: […]
(Time-resolved FRET reads energy transfer from a long-lived donor to a nearby acceptor.)

Assay [2] deals with T2, ErbB2 (Homo sapiens, UniProt P04626).
T2 construct: made in house; host or cells: baculovirus expression system
Description: ErbB-2 substrate phosphorylation assay (HTRF). The assay is classed as biochemical. The method, then:
as §1, §2, §3, §4, §5, §6, §7

In assay [3] the target is B-Raf (Homo sapiens, UniProt P15056). Description: B-Raf Accelerated MEK ATPase assay (BRAMA), Method A or B. The assay is classed as biochemical. Particulars: Method B: final MEK 150 nM, single end point read. As to the method: Compounds of the present invention were tested for B-Raf protein serine kinase inhibitory activity in a B-Raf Accelerated MEK ATPase assay (BRAMA). The BRAMA assay is a high sensitivity assay which measures an intrinsic MEK-mediated ATP hydrolysis uncoupled from downstream ERK phosphorylation by coupling the formation of ADP to NADH oxidation through the enzymes pyruvate kinase and lactate dehydrogenase. When ADP production is initiated by addition of catalytic amounts of an activated Raf enzyme and non-phosphorylated MEK, one observes robust ADP production concomitant with Raf-mediated phosphorylation of MEK.
Method A: Specific details of the assay are disclosed in: C. Rominger, M. Schaber, E. May. Assay for B-Raf Activity Based on Intrinsic MEK ATPase Activity. Statutory Invention Registration 11/084,993 (March, 2005). Method B: The method is the same as method A, but includes the following changes: 1) the assay was performed with a final MEK concentration of 150 nM and 2) the assay was read as single end point instead of a kinetic read.

Assay [4] has as its system Colo205 tumor cells. Description: Cell growth inhibition assay (CellTiter-Glo), Colo205. In kind it is cell-based, Human. The following applies: Homo sapiens, COLO 205, 72 h; 3 days incubation. The method, then: (§8) Human breast tumor cells (BT474) were cultured in RPMI (Mediatech […]), containing 10% FBS (JRH Biosciences 12176) and 1% penicillin-streptomycin (Invitrogen 15140). Human head and neck tumor cells (HN5) were cultured in high glucose DMEM (Mediatech 50-013-PB) containing 10% FBS and 1% penicillin-streptomycin. Human colon tumor cells (Colo205) were cultured in RPMI (Mediatech 50-020-PB) containing 10% FBS and 1% penicillin-streptomycin. Human melanoma cancer cells (SK-MEL-28) were cultured in EMEM with nonessential amino acids (Mediatech 50-011-PB) containing 10% FBS, 1% sodium pyruvate (JT Baker 3354-04), and 1% penicillin-streptomycin. Human melanoma cancer cells (A375P F11s) were cultured in RPMI (Mediatech 50-020-PB) containing 10% FBS, 1% sodium pyruvate, and 1% penicillin-streptomycin. Human colon cancer cells (HT-29) were cultured in high glucose DMEM (Mediatech 50-013-PB) containing 10% FBS and 1% penicillin-streptomycin. Human melanoma cancer cells (SK-MEL-3) were cultured in McCoy's 5A (50-025-PB) containing 15% FBS, and 1% penicillin-streptomycin. All cell lines were maintained at 37° C. in a humidified 5% CO2, 95% air incubator. Cells were harvested using trypsin/EDTA (Invitrogen 25200), counted using a haemocytometer, and plated. For 96-well assays (using white full-area NUNC plates cat. #136102), cells were plated in 105 μL at the following densities (cells/well): HNS, 500; Colo 205, 500; SK-MEL-28, 500; A375P F11s, 500; HT-29, 500; SK-MEL-3, 500; and BT474, 3000. For 384-well assays (white full-area NUNC plates, cat. #781080), cells were plated in 48 μL at the following densities (cells/well): HNS, 500; Colo205, 500; SK-MEL-28, 500; A375P F11s, 500; HT-29, 500; SK-MEL-3, 500; and BT474, 2000.
(§9) The next day, compounds were diluted as follow: For 96-well assays, 13.5 μL of compound in DMSO were diluted using nine (9) serial 1:3 dilutions of 4.5 μL in 9 of DMSO. Medium (270 μL/well of RPMI with 10% FBS and 1% penicillin-streptomycin) was added to the plates. Aliquots (7 μL) were added to cells in the final assay giving a final DMSO concentration of 0.2%. For 384-well assays, 15 μL of compound in DMSO were diluted using nine (9) serial 1:3 dilutions of 5 μL in 10 μL of DMSO, followed by a further dilution of 5 μL of compound with 95 μL of medium, of which 2 μL were added to cells in the final assay giving a final DMSO concentration of 0.2%. Cells were incubated at 37° C., 5% CO2 for 3 days.
(§10) Total ATP was measured (as a surrogate estimate of cell number) using CellTiter-Glo® reagent (Promega G7571). Briefly, plates were removed from the incubator and allowed to equilibrate to room temperature for 30 minutes. CellTiter-Glo® (25 μL or 55 μL for 384-well or 96-well assays, respectively) reagent was added to each well and plates were shaken on an orbital plate shaker for 2 minutes. Plates were incubated without shaking for a further 30 minutes and read on an LJL Analyst GT reader in luminometer mode with an integration time of 0.5 seconds per well. Percent inhibition of cell growth was calculated relative to DMSO vehicle-treated control wells. Concentration of compound required to give 50% inhibition of vehicle-treated control cell growth (IC50) was interpolated using a 4-parameter fit for determining IC50 using the following equation: Y=A +((B−A)/(1+((C/X)̂D))) where […].
In general terms: Cellular ATP, detected with luciferase, serves as a proxy for viable cell number.

The test system of assay [5] is SK-MEL-28 tumor cells. In words: Cell growth inhibition assay (CellTiter-Glo), SK-MEL-28. Particulars: Homo sapiens, SK-MEL-28, 72 h; 3 days incubation. The assay is classed as cell-based, Human. The method, then:
as §8, §9, §10

T1 sequence (P00533 25-1210): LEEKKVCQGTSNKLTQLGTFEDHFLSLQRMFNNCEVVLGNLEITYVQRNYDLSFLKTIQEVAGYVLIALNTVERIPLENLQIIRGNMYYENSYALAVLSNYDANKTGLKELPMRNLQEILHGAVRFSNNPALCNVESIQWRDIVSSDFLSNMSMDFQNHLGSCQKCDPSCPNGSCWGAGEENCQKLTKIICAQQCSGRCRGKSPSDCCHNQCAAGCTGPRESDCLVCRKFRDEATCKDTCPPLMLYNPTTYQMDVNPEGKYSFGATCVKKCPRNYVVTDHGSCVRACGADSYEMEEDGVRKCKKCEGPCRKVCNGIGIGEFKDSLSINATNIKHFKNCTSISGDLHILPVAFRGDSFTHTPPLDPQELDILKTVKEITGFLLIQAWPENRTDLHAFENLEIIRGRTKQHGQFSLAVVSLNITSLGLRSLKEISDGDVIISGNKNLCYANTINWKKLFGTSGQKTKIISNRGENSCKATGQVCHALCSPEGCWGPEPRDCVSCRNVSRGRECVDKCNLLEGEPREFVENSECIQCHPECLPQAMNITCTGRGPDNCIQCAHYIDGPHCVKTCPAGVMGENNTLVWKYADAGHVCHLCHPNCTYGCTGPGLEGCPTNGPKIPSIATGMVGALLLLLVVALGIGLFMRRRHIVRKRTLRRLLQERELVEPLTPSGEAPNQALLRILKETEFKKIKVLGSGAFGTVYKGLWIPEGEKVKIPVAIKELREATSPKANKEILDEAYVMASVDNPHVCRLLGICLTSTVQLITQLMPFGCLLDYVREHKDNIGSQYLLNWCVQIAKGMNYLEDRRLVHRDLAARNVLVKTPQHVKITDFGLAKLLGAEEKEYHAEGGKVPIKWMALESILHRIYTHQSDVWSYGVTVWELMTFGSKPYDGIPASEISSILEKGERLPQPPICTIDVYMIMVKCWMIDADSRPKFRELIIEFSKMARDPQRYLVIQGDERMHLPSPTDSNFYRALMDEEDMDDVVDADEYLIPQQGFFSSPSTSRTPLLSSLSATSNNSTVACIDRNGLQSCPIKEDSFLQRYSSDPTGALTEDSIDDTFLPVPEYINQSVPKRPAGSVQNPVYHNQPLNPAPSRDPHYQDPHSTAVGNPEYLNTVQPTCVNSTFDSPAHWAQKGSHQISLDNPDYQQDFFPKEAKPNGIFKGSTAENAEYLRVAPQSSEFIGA
T2 sequence (P04626 23-1255): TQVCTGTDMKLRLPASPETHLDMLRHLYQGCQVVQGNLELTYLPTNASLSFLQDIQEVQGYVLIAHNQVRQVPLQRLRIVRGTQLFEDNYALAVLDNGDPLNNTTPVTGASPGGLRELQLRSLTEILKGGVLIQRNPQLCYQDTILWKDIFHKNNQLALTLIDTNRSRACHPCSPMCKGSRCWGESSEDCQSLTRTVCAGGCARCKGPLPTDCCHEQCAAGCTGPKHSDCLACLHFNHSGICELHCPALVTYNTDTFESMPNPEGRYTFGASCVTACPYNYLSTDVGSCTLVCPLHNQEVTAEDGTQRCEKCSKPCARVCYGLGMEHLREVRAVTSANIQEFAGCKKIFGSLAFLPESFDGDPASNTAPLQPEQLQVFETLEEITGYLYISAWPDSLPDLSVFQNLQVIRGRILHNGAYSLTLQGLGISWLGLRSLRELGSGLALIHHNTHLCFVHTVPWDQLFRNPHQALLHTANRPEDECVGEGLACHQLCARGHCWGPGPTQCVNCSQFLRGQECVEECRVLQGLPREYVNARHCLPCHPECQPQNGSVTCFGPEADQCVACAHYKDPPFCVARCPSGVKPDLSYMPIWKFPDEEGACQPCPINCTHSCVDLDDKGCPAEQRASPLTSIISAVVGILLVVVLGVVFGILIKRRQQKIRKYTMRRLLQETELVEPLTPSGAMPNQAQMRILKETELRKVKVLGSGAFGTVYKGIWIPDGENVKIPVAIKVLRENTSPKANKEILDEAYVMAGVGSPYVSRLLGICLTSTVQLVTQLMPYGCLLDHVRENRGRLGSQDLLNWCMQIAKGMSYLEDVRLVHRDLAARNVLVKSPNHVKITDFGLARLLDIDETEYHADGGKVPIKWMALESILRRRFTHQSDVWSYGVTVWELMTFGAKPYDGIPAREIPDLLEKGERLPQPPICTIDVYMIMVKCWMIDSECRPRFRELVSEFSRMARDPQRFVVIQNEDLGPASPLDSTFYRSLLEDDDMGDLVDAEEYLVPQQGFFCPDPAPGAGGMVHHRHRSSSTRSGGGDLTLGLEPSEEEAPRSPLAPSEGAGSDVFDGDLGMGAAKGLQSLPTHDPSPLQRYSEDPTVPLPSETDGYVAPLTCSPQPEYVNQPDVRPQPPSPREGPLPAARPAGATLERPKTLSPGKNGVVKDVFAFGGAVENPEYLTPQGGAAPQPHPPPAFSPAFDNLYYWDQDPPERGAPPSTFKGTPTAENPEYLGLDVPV
Sequence of B-Raf (P15056 whole entry): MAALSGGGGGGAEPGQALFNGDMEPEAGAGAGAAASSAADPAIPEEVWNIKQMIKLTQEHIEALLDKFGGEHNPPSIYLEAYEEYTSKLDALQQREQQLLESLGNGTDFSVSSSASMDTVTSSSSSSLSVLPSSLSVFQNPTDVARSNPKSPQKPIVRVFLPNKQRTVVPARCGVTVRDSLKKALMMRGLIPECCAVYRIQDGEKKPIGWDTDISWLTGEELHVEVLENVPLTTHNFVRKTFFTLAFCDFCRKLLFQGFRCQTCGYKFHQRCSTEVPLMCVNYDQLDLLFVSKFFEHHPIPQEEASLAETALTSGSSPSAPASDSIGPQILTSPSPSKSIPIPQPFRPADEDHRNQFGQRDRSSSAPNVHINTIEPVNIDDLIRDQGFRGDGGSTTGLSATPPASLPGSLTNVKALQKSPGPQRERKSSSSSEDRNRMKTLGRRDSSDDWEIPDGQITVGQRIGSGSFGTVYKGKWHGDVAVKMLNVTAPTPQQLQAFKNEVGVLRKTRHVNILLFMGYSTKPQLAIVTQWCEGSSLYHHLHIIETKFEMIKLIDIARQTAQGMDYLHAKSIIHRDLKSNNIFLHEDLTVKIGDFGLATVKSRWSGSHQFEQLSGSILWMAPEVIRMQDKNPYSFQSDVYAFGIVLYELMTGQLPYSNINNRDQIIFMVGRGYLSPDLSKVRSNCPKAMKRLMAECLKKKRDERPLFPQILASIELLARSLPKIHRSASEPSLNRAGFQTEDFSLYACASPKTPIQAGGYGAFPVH

Take `COc1cc(OC2CCN(CCS(C)(=O)=O)CC2)c(C)cc1Nc1nccc(-c2sc(C(C)C)nc2-c2cccc(NS(=O)(=O)c3c(F)cccc3F)c2)n1` [Example 158]: the IC50 in assay [1], in assay [2], in assay [3], in assay [4] and in assay [5] was below 0.1 µM throughout.
For the compound `COc1ccc(Nc2nccc(-c3sc(C(C)C)nc3-c3cccc(NS(=O)(=O)Cc4ccccc4)c3)n2)cc1N1CCN(CCS(C)(=O)=O)CC1` [Example 37], the IC50 (usually the concentration that inhibits the measured activity by half) in assay [1] is below 0.1 µM; in assay [2] it was below 0.1 µM; in assay [3], 0.1 to 1 µM; in assay [4], above 1 µM; in assay [5] it was above 1 µM.
On to `CCNc1nc(-c2cccc(NS(=O)(=O)c3c(F)cccc3F)c2)c(-c2ccnc(Nc3cc(C)c(N4CCN(CCS(C)(=O)=O)CC4)cc3OC)n2)s1` [Example 153], for which the IC50 in assay [1] is below 0.1 µM; in assay [2], below 0.1 µM; in assay [3], below 0.1 µM; in assay [4] it was below 0.1 µM; in assay [5] it was 0.1 to 1 µM.
For `COc1cc(N2CCN(CCS(C)(=O)=O)CC2)c(C)cc1Nc1nccc(-c2sc(C(C)C)nc2-c2cccc(NS(=O)(=O)c3cn(C)cn3)c2)n1` [Example 43], the IC50 in assay [1] is above 1 µM; in assay [2] it was 0.1 to 1 µM; in assay [3], 0.1 to 1 µM; in assay [4] it was above 1 µM; in assay [5] it was above 1 µM.
With `CS(=O)(=O)N1CCN(c2ccc(Nc3nccc(-c4oc(N5CCCC5)nc4-c4ccc(F)c(NS(=O)(=O)c5ccccc5F)c4)n3)cn2)CC1` [Example 60], the IC50 in assay [1] was above 1 µM; in assay [2] it was above 1 µM; in assay [3], below 0.1 µM; in assay [4], 0.1 to 1 µM; in assay [5], above 1 µM.
As to `CC(C)c1nc(-c2cccc(NS(=O)(=O)c3cn(C)nc3C(F)(F)F)c2)c(-c2ccnc(Nc3ccc(N4CCOCC4)nc3)n2)s1` [Example 40], the IC50 in assay [1] is above 1 µM; in assay [2], above 1 µM; in assay [3], 0.1 to 1 µM; in assay [4], above 1 µM; in assay [5], above 1 µM.
As to `CCc1nc(-c2cccc(CNS(=O)(=O)c3ccccc3)c2)c(-c2ccnc(Nc3ccc(N4CCN(C(C)=O)CC4)nc3)n2)s1` [Example 68], the IC50 was 0.1 to 1 µM in assay [1]; 0.1 to 1 µM in assay [2]; 0.1 to 1 µM in assay [3]; above 1 µM in assay [4]; above 1 µM in assay [5].
For `Nc1nc(-c2ccc(F)c(NS(=O)(=O)c3c(F)cccc3F)c2)c(-c2ccnc(Nc3ccc(N4CCOCC4)nc3)n2)s1` [Example 64], the IC50 was 0.1 to 1 µM in assay [1]; below 0.1 µM in assay [2]; below 0.1 µM in assay [3]; above 1 µM in assay [4]; above 1 µM in assay [5].
Take `COc1ccc(S(C)(=O)=O)cc1Nc1nccc(-c2sc(C(C)C)nc2-c2cccc(NS(=O)(=O)c3c(F)cccc3F)n2)n1` [Example 172]: the IC50 in assay [1] was 0.1 to 1 µM; in assay [2], below 0.1 µM; in assay [3] it was below 0.1 µM; in assay [4], above 1 µM; in assay [5], above 1 µM.
Take `COc1cc2c(cc1Nc1nccc(-c3sc(C(C)C)nc3-c3cccc(NS(=O)(=O)c4c(F)cccc4F)c3)n1)N(C(=O)CN(C)C)CC2` [Example 118]: the IC50 in assay [1] is 0.1 to 1 µM; in assay [2], 0.1 to 1 µM; in assay [3], 0.1 to 1 µM; in assay [4], above 1 µM; in assay [5] it was above 1 µM.
With `COc1cc(CCN2CCCCC2)c(F)cc1Nc1nccc(-c2sc(C(C)C)nc2-c2cccc(NS(=O)(=O)c3c(F)cccc3F)c2)n1` [Example 156], the IC50 in assay [1] was 0.1 to 1 µM; in assay [2], 0.1 to 1 µM; in assay [3], below 0.1 µM; in assay [4], 0.1 to 1 µM; in assay [5], 0.1 to 1 µM.
`COc1ccc(S(C)(=O)=O)cc1Nc1nccc(-c2sc(N3CCOCC3)nc2-c2cccc(NS(=O)(=O)c3c(F)cccc3F)c2OC)n1` [Example 168]: the IC50 was above 1 µM in assay [1], above 1 µM in assay [2], below 0.1 µM in assay [3] and above 1 µM in assay [5].
On to `COc1cc(N2CCC(CCS(C)(=O)=O)CC2)c(C)cc1Nc1nccc(-c2sc(N3CCCC3)nc2-c2cccc(NS(=O)(=O)c3c(F)cccc3F)c2)n1` [Example 137], for which the IC50 in assay [2] is above 1 µM; in assay [3] it was 0.1 to 1 µM; in assay [4], below 0.1 µM; in assay [5] it was 0.1 to 1 µM.
